Assay results published in ChEMBL document CHEMBL2375310, “Analysis of the antioxidant properties of differently substituted 2- and 3-indolyl carbohydrazides and related derivatives” (Eur J Med Chem, 2013).
Activity calls are given as the source filed them. The calls are words filed in the database; no cut-off is given here.

Key:
[1] = test system: Radical scavenging activity; assay: Antioxidant activity assessed as DPPH free radical scavenging activity at 100 uM after 20 mins by spectrophotometry; format: functional
[2] = test system: Radical scavenging activity; assay: Antioxidant activity assessed as DPPH free radical scavenging activity at 50 uM after 20 to 60 mins by spectrophotometry; format: functional
Rattus norvegicus = assay: Antiinflammatory activity in Fisher 344 rat assessed as reduction of carrageenan-induced paw oedema at 0.01 mmol/kg, ip after 3.5 hrs; format: functional; design: scale not given: the % may be the effect or the level left
[3] = Inhibition of soybean lipoxygenase; design: species or system Glycine max
[4] = Antioxidant activity assessed as xanthine-xanthine oxidase-induced superoxide anion radical scavenging activity at 0.1 mM after 10 mins by spectrophotometry; format: functional
[5] = Antioxidant activity against AAPH-induced lipid peroxidation at 100 uM by UV spectrophotometry; format: functional
[6] = test system: Radical scavenging activity; assay: Antioxidant activity assessed as DPPH free radical scavenging activity at 100 uM after 60 mins by spectrophotometry; format: functional
[7] = Antioxidant activity assessed as Fe3+/ascorbic acid-induced hydroxyl radical scavenging activity at 100 uM after 30 mins; format: functional
Glycine max = assay: Inhibition of soybean lipoxygenase at 100 uM
[8] = test system: Radical scavenging activity; assay: Antioxidant activity assessed as DPPH free radical scavenging activity at 100 uM by spectrophotometry; format: functional

Row | Compound | Activity [1] | Activity [2] | Activity (Rattus norvegicus) [%] | IC50 [3] [µM] | Activity [4] | Activity [5] | Activity [6] [%] | Activity [7] | inhibition (Glycine max) | Activity [8]
1 | CC(C)=NNC(=O)c1cc2ccccc2n1C | inactive | inactive | 40 | 62.5 | 100% | 87% | 91 | 18% | – | –
2 | C/C(CC(C)C)=N\NC(=O)c1cc2ccccc2[nH]1 | 10% | inactive | – | – | inactive | 68% | 36 | 74% | 31% | Active
3 | C/C(Cc1ccccc1)=N/NC(=O)c1c[nH]c2ccc(O)cc12 | 65% | inactive | – | – | inactive | 50% | 80 | 2% | 52% | –
4 | NNC(=O)CCc1c[nH]c2ccccc12 | 12.5% | inactive | – | – | 67% | inactive | 56 | inactive | inactive | –
5 | Cc1c(C)c2c(c(C)c1O)CCC(C)(C(=O)O)O2 (centres undefined) | – | – | – | – | – | 63% | – | 73% | – | –
6 | O=C(NNCCCc1ccccc1)c1cc2ccccc2[nH]1 | 53% | inactive | – | – | inactive | 64% | 8.5 | inactive | 33% | Active
7 | CC(Cc1ccc(O)c(O)c1)C(C)Cc1ccc(O)c(O)c1 (centres undefined) | 81% | – | – | – | – | – | 83 | – | – | –
8 | COc1ccc2c(c1)c(CC(=O)O)c(C)n2C(=O)c1ccc(Cl)cc1 [INDOMETHACIN] | – | – | 47 | – | – | – | – | – | – | –
9 | Cc1ccc(CNNC(=O)c2cc3ccccc3n2C)cc1 | 66% | inactive | – | 78 | 67% | 85% | 61 | inactive | – | Active
10 | O=C(O)/C=C/c1ccc(O)c(O)c1 | – | – | – | – | 15% | – | – | – | – | –
11 | CCC(CC)NNC(=O)c1cc2ccccc2[nH]1 | 11% | inactive | – | – | inactive | 30% | 16 | 61% | 19% | Active
12 | CCCCNNC(=O)c1cc2ccccc2[nH]1 | 79% | inactive | 57 | 62.5 | 33% | 78% | 8 | 90% | – | Active
13 | NNCCCc1c[nH]c2ccccc12 | 85% | inactive | – | – | inactive | 25% | 99 | 34% | inactive | –
14 | O=C(NN=C1CCCC1)c1cc2ccccc2[nH]1 | inactive | inactive | – | – | inactive | 65% | 38 | 17% | 37% | Active
